Assay results as given in patent US7223770B2, “Tocopherol-modified therapeutic drug compounds” (priority 2003, dated 2007).
Counter-ions that a name gives are not always drawn.

Tests used:
[1] = tested on: NCI-H460 (non-small cell lung); settings: NCI-H460 (NSCLC); value reported by NCI; cited from earlier work
MCF-7 (breast) = settings: value reported by NCI; cited from earlier work
HCT-15 (colorectal) = settings: HCT-15 (COLON); value reported by NCI; cited from earlier work
HCT-116 (colorectal) = settings: HCT-116 (COLON); value reported by NCI; cited from earlier work
[2] = rats, intravenous; literature value; cited from earlier work
HT-29 (colorectal) = settings: HT29 (COLON); value reported by NCI; cited from earlier work
OVCAR-3 (ovarian) = settings: value reported by NCI; cited from earlier work
HT-29 human tumor cells = assay: HT-29 Human Tumor Xenograft anti-tumor activity; format: in vivo, Athymic mice
Procedure: HT-29 Human Tumor Xenograft. Athymic mice were subcutaneously implanted with 30–40 mg tumor fragments using 12-gauge trocar needles. A sufficient number of mice were implanted with fragments so tumors in narrow weight range (100–200 mg) were selected for the trial on staging day (SD). The animals selected with tumors in the proper size range were randomized into six groups of 10 animals and intravenously administered the following test compounds:
The tumor measurements were performed using a caliper (millimeters); the tumor volume was calculated based on the formula: (Length×width^2)/2=Volume (mm^3).

[3] = 15 mg/kg intravenous, q1dx5 (2 weeks)

| Structure (SMILES) | GI50 [1] | GI50 (MCF-7 (breast)) | GI50 (HCT-15 (colorectal)) | GI50 (HCT-116 (colorectal)) | Clearance [2] | t1/2 (elimination) [2] | GI50 (HT-29 (colorectal)) | GI50 (OVCAR-3 (ovarian)) | MRT [2] | Number of animals with no measurable tumor on Day 55 (HT-29 human tumor cells; [3]) | Tumor Growth Delay (T − C) (HT-29 human tumor cells; [3]) | Tumor Growth Inhibition (% T/C) (HT-29 human tumor cells; 15 mg/kg intravenous, q1dx5 (2 weeks), at Day 55) | Median tumor size (HT-29 human tumor cells; q1dx5, fifty-five days after dose initiation) |
| --- | --- | --- | --- | --- | --- | --- | --- | --- | --- | --- | --- | --- | --- |
| CC[C@@]1(O)C(=O)OCc2c1cc1n(c2=O)Cc2cc3ccccc3nc2-1 [Camptothecin] | 16 nM | 13 nM | 160 nM | 40 nM | 147 mL/min/kg | 1.7 h | 126 nM | 160 nM | – | – | – | – | – |
| CC[C@@]1(O)C(=O)OCc2c1cc1n(c2=O)Cc2cc3cc(O)ccc3nc2-1 [Example 10-HO-CPT, 10-hydroxycamptothecin] | 11 nM | 10 nM | 356 nM | 27 nM | – | – | 112 nM | 62 nM | – | – | – | – | – |
| CCc1c2c(nc3ccc(OC(=O)N4CCC(N5CCCCC5)CC4)cc13)-c1cc3c(c(=O)n1C2)COC(=O)[C@]3(O)CC [Irinotecan, irinotecan hydrochloride] | 5010 nM | 3980 nM | – | 7900 nM | – | – | 12600 nM | – | 1.43 h | 0/10 | 14 days | 52 % T/C | 1637 mm^3 |
